Data reported in patent publication US20240181007A1, “COMPOSITIONS AND METHODS FOR TREATING PULMONARY HYPERTENSION” (Acceleron Pharma Inc., priority 2021, published 2024).

Tested on: ZSF1-SU rats
Experiment: HFpEF induced PH rat model, ZSF1 rats challenged with semaxanib (Example 10)
Format: in vivo
Details: relative to ZSF1-SU/PBS
Procedure: The effects of an ActRIIA-mFc fusion polypeptide (SEQ ID NO: 56) was examined in a rat model of left ventricular diastolic dysfunction (also referred to as HEpEF) group 2 (subgroup 2.2) pulmonary hypertension (PH). In this model, ZSF1-Lepr^faLepr^cp/Crl rats were challenged with semaxanib to induce HFpEF-PH(l).
Forty ZSF1 Lepr^faLepr^cp/Crl male […] (8 wks old) and five lean rats were subcutaneously administered with a single dose of semaxanib (100 mg/kg) at day 0, and five lean rats were included as normal control. Six weeks after semaxanib (SU5416) treatment, Thirty-six ZSF1 Lepr^faLepr^cp/Crl rats were randomized into four groups: i) nine rats were injected subcutaneously with vehicle control (phosphate buffered saline (PBS)), twice weekly for 8 weeks starting from day 42 after semaxanib treatment, “ZSF1-SU/PBS”; a ii) ten rats were injected subcutaneously with ActRIIA-mFc at a dose of 1 mg/kg twice weekly for 8 weeks starting from day 42 after semaxanib treatment, “ZSF1-SU/ActRIIA-mFc 1 mpk”: a iii) nine rats were injected subcutaneously with ActRIIA-mFc at a dose of 3 mg/kg twice weekly for 8 weeks starting from day 42 after semaxanib treatment, “ZSF1-SU/ActRIIA-mFc 3 mpk”; and a iv) eight rats were injected subcutaneously with ActRIIA-mFc at a dose of 10 mg/kg twice weekly for 8 weeks starting from day 42 after semaxanib treatment, “ZSF1-SU/ActRIIA-mFc 10 mpk”. At the end of the study, echocardiography and pressure-volume catheter were performed to measure left and right ventricular remodeling and functional changes before animals were euthanized for heart and lung collection. Hearts and lungs of each rat were weighed, fixed in 10% formalin, embedded in paraffin, and sectioned for Masson's trichrome stain to assess fibrosis. Serum and urine samples were collected at the end of the study.
Rats were fasted overnight to measure fasting blood glucose levels at week 14 (before treatments started), week 18 (4 weeks after treatments), and week 22, and oral glucose tolerance test was performed at week 22. Blood glucose levels were measured with a glucometer after bleeding tail vein with a 27G needle. To prepare oral glucose tolerance test, 40% glucose stock solution run through a filter to sterilize it. After fasting overnight, rat body weight was measured. Blood glucose level was detected. Then 40% glucose solution was administered via oral gavage according to body weight (2 g/kg). Blood glucose levels were measured at 30, 60, 90, 120 minutes.
Prior to euthanization, in vivo cardiac function was assessed by transthoracic echocardiography (Acuson P300, 18 MHz linear transducer; Siemens) in lightly anesthetized rats as described (2). From left ventricle short axis view, M-mode echocardiogram was acquired to measure interventricular septal thickness at end diastole (IVSd), left ventricular posterior wall thickness at end diastole (LVPWd), left ventricular end diastolic diameter (LVEDD), and left ventricular end systolic diameter (LVESD). Left ventricular mass (LVM) was assessed by the equation: 1.05 [(LVEDD+LVPTD+IVSd)^3-LVEDD^3]. Early diastolic filling peak velocity (E), early diastolic mitral annular velocity (E′), and isovolumetric relaxation time (IVRT) were measured from the medial or septal wall at the mitral valve level from tissue Doppler image. LV diastolic function was assessed by measuring the E/E′ ratio and IVRT. Pulmonary arterial acceleration time (PAAT), a parameter of right ventricular function, was also measured.
Fourteen weeks after semaxanib treatment, rats were anesthetized with ketamine (100 mg/kg) and xylazine (5 mg/kg) at the end of the experiment to evaluate cardiac and pulmonary hemodynamics. The respiration was supported by a small animal ventilator. Thoracotomy was made through 4-5 intercostal space, and the heart was exposed. A pressure-volume catheter (2.0-Fr, SPR-869, Millar Instruments, Houston, TX, USA) was be inserted into the left ventricle and right ventricle from the apex. […]

[1] = 1 mpk, 3 mpk and 10 mpk, FIGS. 41-43

Q: What does the source list for “ActRIIA-mFc: ActRIIA-mFc fusion polypeptide (SEQ ID NO: 56); extracellular domain fused to murine IgG2a Fc domain with a linker”?
A: fasting blood glucose [1]: significantly reduced fasting blood glucose; glucose level in urine [1]: decreased glucose level in urine; glucose tolerance (oral glucose tolerance test) [1]: improved glucose tolerance; E/E′ ratio (3 mpk and 10 mpk s.c. twice weekly for 8 weeks from day 42 after semaxanib, FIG. 29): reduced E/E′ ratio; IVRT (3 mpk and 10 mpk s.c. twice weekly for 8 weeks from day 42 after semaxanib, FIG. 30): decreased IVRT; RVFWT (3 mpk and 10 mpk s.c. twice weekly for 8 weeks from day 42 after semaxanib, FIG. 34): significantly reduced elevated RVFWT; PAAT (3 mpk and 10 mpk s.c. twice weekly for 8 weeks from day 42 after semaxanib, FIG. 35): reduced PAAT; RVSP (3 mpk and 10 mpk s.c. twice weekly for 8 weeks from day 42 after semaxanib, FIG. 36): reduced elevated RVSP; left heart remodeling (HW/TL, IVSd, LVM) (3 mpk and 10 mpk s.c. twice weekly for 8 weeks from day 42 after semaxanib, FIGS. 31-33): significantly reduced left heart remodeling; fibrosis in LV (s.c. twice weekly for 8 weeks, dose not given, FIG. 37): significantly reduced the increased fibrosis; fibrosis in RV (s.c. twice weekly for 8 weeks, dose not given, FIG. 38): significantly reduced the increased fibrosis; fibrosis in lung (s.c. twice weekly for 8 weeks, dose not given, FIG. 39): significantly reduced the increased fibrosis
